Laboratory results published in US7544657B2, “Stabilized Exendin-4 compounds” (Zealand Pharma A/S, priority 2002, dated 2009).

How the values were obtained:
[1] = system: db/db mice; experiment: Oral glucose tolerance test (OGTT); type: in vivo; details: OGTT in db/db mice, compound i.p. 15 min before oral glucose 1 g/kg, ED50 based on curve fits of AUC0-240 min
Description: Oral Glucose Tolerance Test (OGTT)
The anti diabetic effect of the present compounds was tested in an oral glucose tolerance test (OGTT). In short, animals were fasted over night, and blood samples were taken from the tip of the tail and the blood glucose measured. The whole blood glucose (mM) concentration was analysed by the immobilised glucose oxidase method using a drop of blood (<5 μl; Elite Autoanalyser, Bayer, Denmark) following the manufacturer's manual. The animals were kept fasted throughout the test. Immediately after the initial blood sample (fasting blood glucose level) test compound or vehicle was administered i.p. Fifteen minutes later an oral dose of glucose ((1 g/kg) Sigma, St. Louis, Mo., U.S.A.)), dissolved in phosphate buffer (pH=7.40) was given, and the animals were returned to their home cages (time=0). […] To analyse the effects of the test compounds on oral glucose tolerance the absolute difference in BG from baseline (fasting BG) was calculated for each time point. The area under the curve (AUC) (FIG. 1-8) for the whole experiment (AUC0-120 min) or (AUC0-240 min) was determined using the trapezoid method. Before starting the experimental series an OGTT was used to stratify animals into groups of 9-10 animals displaying similar glucose tolerances in all groups. Animals displaying excessive glucose excursion 30 min after glucose loading (BG>33 mmol/l) were excluded from the study.

[2] = system: diabetic db/db mice; details: given systemically; cited from earlier work
[3] = Table 2, another set of experiments

## Compound 2: Stabilized derivative of Compound 1 (SEQ ID NO: 2), obtained by exposing Compound 1 to H2O2 (HGEGTFTSDLSKQMEEEAVRLFIEWLKDGGPSSGAPPSKKKKKK)
[1]; [3]
  ED50: 0.011 nmol/kg

## Compound 5: Stabilized derivative of Compound 1 (SEQ ID NO: 5), formed by incubation in NH4HCO3 pH 7.9 at 40° C. (HGEGTFTSDLSKQMEEEAVRLFIEWLKDGGPSSGAPPSKKKKKK)
[1]; [3]
  ED50: 0.043 nmol/kg

## Compound 6: Stabilized derivative of Compound 1 (SEQ ID NO: 6), formed by incubation in NH4HCO3 pH 7.9 at 40° C. (HGEGTFTSDLSKQMEEEAVRLFIEWLKDGGPSSGAPPSKKKKKK)
[1]; Table 1
  ED50: 0.013 nmol/kg

## Compound 14: Stabilized derivative of Compound 1 (SEQ ID NO: 14), formed by incubation in NH4HCO3 pH 7.9 at 40° C. (HGEGTFTSDLSKQMEEEAVRLFIEWLKDGGPSSGAPPSKKKKKK)
[1]; Table 1
  ED50: 0.55 nmol/kg

## Exendin-4
[2]
  lowering of blood glucose levels: 40%

## des Pro^36 Exendin-4 (1-39)-K6 [Compound 1]
[1]; Table 1
  ED50: 0.049 nmol/kg
[1]; [3]
  ED50: 0.073 nmol/kg
